Results published in patent US20250177481A1, “SCO-spondin-derived polypeptides for enhancing synaptic transmission” (AXOLTIS PHARMA, priority 2021, published 2025).
Where “and” joins values, the source holds several entries; their conditions need not be identical. Identical values can stand only once. Positions of bridges follow the written chain, without caps; N, C: chain ends. No end group written: not given here.

What was measured:
[1] = system: Schaffer collateral-CA1 synaptic transmission in mouse hippocampal slices after OGD; assay: fEPSP recovery after oxygen-glucose deprivation (OGD) in hippocampal slices, treatment during OGD (Example 7); format: cell-based, C57Bl6/J mice; details: NX218 250 μg/mL during OGD, n=9 slices
Method: Acute episodes of hypoxia may cause a depression in synaptic activity in many brain regions. […] To meet this goal, functional recovery was assessed by recording evoked field excitatory postsynaptic potentials (fEPSPs) in mouse hippocampal neurons, before and after oxygen-glucose deprivation (OGD).
Experiments were carried out with 4-5 weeks old male C57Bl6/J mice (approximately 20 grams) obtained from Charles River, France. In total, 9 mice were used in this study. Two slices were recorded from each mouse (one for the control condition and another for the NX218 condition). Animals were acclimated to laboratory housing conditions for 13 days prior to experimental use. Standard Food (Type a04, SAFE, France) was available ad libitum. Filtered mains drinking water ([…]) was available ad libitum.
Sagittal hippocampal brain slices were obtained using standard brain slicing methods (approximately 6 slices per mouse) (Knobloch et al. 2007). Mice were anesthetized with 5% isoflurane and then decapitated. Brain was dissected out of the cranium and immediately immersed in ice-cold freshly prepared artificial cerebrospinal fluid (aCSF) containing: 124 mM NaCl, 3.75 mM KCl, 2 mM MgSO4, 2 mM CaCl2, 26.5 mM NaHCO3, 1.25 mM NaH2PO4, 10 mM glucose, continuously oxygenated (95% O2, 5% CO2) (pH=7.4) for a total duration of 3-4 minutes. Acute slices (350 μm thick) were prepared using a vibratome (VT 1000S; Leica Microsystems, Bannockburn, IL). […]
For electrophysiological recordings, a single slice was placed in the recording chamber (room temperature), submerged and continuously superfused with gassed aCSF (95% O2, 5% CO2; pH=7.4) at a constant rate (2 mL min^−1) for the reminder of the experiment. Extracellular field excitatory postsynaptic potentials (fEPSPs) were recorded in the CA1 stratum radiatum using a glass micropipette filled with aCSF. fEPSPs were evoked by the electrical stimulation of Schaffer collateral-commissural pathway at 0.1 Hz (i.e., a single pulse every 10 s) with a glass stimulating electrode (borosilicate capillary glass with filament, standard wall; OD: 1.5 mm; ID: 0.86 mm; Length: 75 mm; ref: W3 30-0060 from Harvard Apparatus) placed in the stratum radiatum.
At the beginning of each experiment (when a stable fEPSP response was reached), Input/Output (I/O) curves were obtained by gradual increases in stimulus intensity (from 0 to 100 μA, 10 μA intervals) to determine the intensity of stimulation that was kept for the reminder of the experiment. Stable baseline fEPSPs was then recorded during 10 minutes by stimulating at 80% of maximal field amplitude (single pulse every 10 s, i.e., 0.1 Hz). […]

[2] = system: Schaffer collateral-CA1 synaptic transmission in mouse hippocampal slices after OGD; assay: fEPSP recovery after OGD in hippocampal slices, treatment from the end of OGD or during recovery plateau (Example 8); format: cell-based, C57Bl6/J mice; details: for averaged normalized f-EPSP slope: NX218 250 μg/mL from the end of OGD, n=10 slices
Method: Two extra slices were also be recorded to evaluate a possible curative capacity of NX218 against hypoxia.
Animals: see Example 7. In total, 10 mice were used in this study. An additional mouse was used to obtain two extra slices for preliminary recordings (“test slices)”.
Mice brain slice preparation: see Example 7
Conditions of Example 7 are used, except:
Measurements of evoked field excitatory postsynaptic potential (fEPSP) recovery after OGD were continued for 120 min from TO (OGD initiation). Two “test slices” were also done according to the experimental design described above.
Oxygen-glucose deprivation: see Example 7. In this study, the mean OGD duration was 10.6±1.0 min. Data processing and statistical analysis: see Example 7.

## W-S-G-W-S-S-C-S-R-S-C-G [NX218] (WSGWSSCSRSCG; disulfide 7-11 (inferred))
[1]; 0-30 min after start of OGD, vehicle 31.618
  averaged normalized f-EPSP slope: 31.043 % of baseline
[1]; 30-60 min after start of OGD, vehicle 47.152
  averaged normalized f-EPSP slope: 61.7±5.0 % of baseline and 61.663 % of baseline
[1]; 60-90 min after start of OGD, vehicle 69.598
  averaged normalized f-EPSP slope: 88.0±2.6 % of baseline and 87.959 % of baseline
[1]; last 10 min (of 90 min) after start of OGD, vehicle 72.432
  averaged normalized f-EPSP slope: 92.6±2.4 % of baseline and 92.639 % of baseline
[2]; 0-30 min after start of OGD, vehicle 28.497
  averaged normalized f-EPSP slope: 25.758 % of baseline
[2]; 30-60 min after start of OGD, vehicle 53.456
  averaged normalized f-EPSP slope: 52.556 % of baseline
[2]; 60-90 min after start of OGD, vehicle 68.774
  averaged normalized f-EPSP slope: 74.616 % of baseline
[2]; 90-120 min after start of OGD, vehicle 77.110
  averaged normalized f-EPSP slope: 88.0±1.9 % of baseline and 88.046 % of baseline
[2]; NX218 250 μg/mL applied during recovery plateau, T=60 min or T=70 min after OGD initiation, preliminary, n=1 per timepoint
  shape of the f-EPSP recovery phase following OGD (curative effect): rising further toward baseline
[2]; last 10 min (of 120 min) after start of OGD, vehicle 79.319
  averaged normalized f-EPSP slope: 90.3±2.7 % of baseline and 90.340 % of baseline
